Measurements taken from ChEMBL document CHEMBL4732255, “Evaluation of the antiproliferative activity of 106 marine microbial metabolites against human lung cancer cells and potential antiproliferative mechanism of purpuride G” (Bioorg Med Chem Lett, 2021).

Assays:
NCI-H157 [1] = test: Antiproliferative activity against human NCI-H157 cells assessed as cell viability at 50 uM measured after 72 hrs by sulforhodamine B assay; type: functional; conditions: read-out: Activity
A549 [2] = test: Antiproliferative activity against human A549 cells assessed as cell viability at 50 uM measured after 72 hrs by sulforhodamine B assay; type: functional; conditions: read-out: Activity
NCI-H157 [3] = test: Antiproliferative activity against human NCI-H157 cells assessed as reduction in cell viability measured after 72 hrs by sulforhodamine B assay; type: functional, cell-based; conditions: NCI-H157, 72 h
A549 [4] = test: Antiproliferative activity against human A549 cells assessed as reduction in cell viability measured after 72 hrs by sulforhodamine B assay; type: functional, cell-based; conditions: A549, 72 h
U-87 MG = test: Antiproliferative activity against human U-87MG cells assessed as reduction in cell viability incubated for 72 hrs by sulforhodamine B assay; type: functional, cell-based, U-87MG ATCC
U-251 = test: Antiproliferative activity against human U-251 cells assessed as reduction in cell viability incubated for 72 hrs by sulforhodamine B assay; type: functional, cell-based; conditions: U-251, 72 h
HL-60 = test: Antiproliferative activity against human HL-60 cells assessed as reduction in cell viability incubated for 72 hrs by sulforhodamine B assay; type: functional, cell-based; conditions: HL-60, 72 h

IC50 (NCI-H157 [3]) [µM] | IC50 (A549 [4]) [µM] | IC50 (U-87 MG) [µM] | IC50 (U-251) [µM] | IC50 (HL-60) [µM] | Compound | viability at 50 µM (NCI-H157 [1]) [%] | viability at 50 µM (A549 [2]) [%]
6.5 | 7.3 | 12.4 | 22.8 |  | CC1=C[C@@]2(C)[C@@H]3C(=O)[C@]4(C[C@@H]2O)C[C@@](O)(Cc2ccc(cc2)O[C@H]2[C@H]3[C@@H]1[C@]1(C)C[C@H](C)C[C@H](C)[C@@H]21)NC4=O | < 50 | < 50
41.9 | 42.9 |  |  |  | C[C@H]1Oc2c(c(O)c3c4c(c(O)ccc24)OC3=O)C1(C)C | < 50 | < 50
32.4 | 20.9 |  |  |  | CC1=C([C@H](C)[C@@H](C)OC=O)C(=O)C2=C(C1=O)[C@@H]1O[C@H](C)[C@@H](C)c3c(C)c(O)cc(c31)O2 [CITRININ H1] | < 50 | < 50
8.6 | 18.2 |  |  |  | CC(=O)c1nc(C(=O)NCCc2ccccc2)cc2c3ccccc3n(C)c12 | < 50 | < 50
 |  |  |  | 14.9 | CC1=C[C@]2(C)[C@H](O)C[C@]34C[C@](O)(Cc5ccc(cc5)O[C@H]5[C@H]([C@H]2C3=O)[C@@H]1[C@]1(C)C[C@H](C)C[C@H](C)[C@@H]51)NC4=O |  | 
22.9 | 44.3 |  |  |  | CO[C@@]1(C)N(C[C@@H](O)c2ccccc2)C(=O)c2cc3c4ccccc4n(C)c3c(=O)n21 | < 50 | < 50
22.3 | 12.3 |  |  |  | C=C[C@@]1(C)C=C(C)[C@@H]2[C@@H]3[C@H](Oc4ccc(cc4)C[C@]45NC(=O)/C(=C(/O)[C@H]31)[C@H]4[C@@H]1C(=O)C(C)=C3[C@H](C)[C@@H](C)O[C@@]3(O)[C@]1(O)O5)[C@@H]1[C@@H](C)C[C@@H](C)C[C@]12C | < 50 | < 50
27 | 45.9 |  |  |  | O=C1c2cc(O)cc(O)c2C(=O)c2c1cc1c(c2O)[C@@H]2CCO[C@@H]2O1 | < 50 | < 50
19.4 | 48.2 |  |  |  | CC(=O)c1nc(C(=O)NCCc2ccccc2)cc2c1[nH]c1ccccc12 | < 50 | < 50
20.2 | 31.6 |  |  |  | Cc1cc(O)cc(Oc2cc(C)cc(O)c2)c1 [DIORCINOL] | < 50 | < 50
9.8 | 12.9 |  |  |  | CO[C@@]1(C)N(CCc2ccccc2)C(=O)c2cc3c4ccccc4n(C)c3c(=O)n21 | < 50 | < 50
 |  |  |  | 7.4 | CC1=C[C@@]2(C)[C@@H]3C(=O)[C@]4(C[C@@H]2O)C[C@](O)(Cc2ccc(cc2)O[C@H]2[C@H]3[C@@H]1[C@]1(C)C[C@H](C)C[C@H](C)[C@@H]21)NC4=O |  | 
19.6 | 25.2 |  |  |  | C=C[C@@]1(C)C=C(C)[C@@H]2[C@@H]3[C@H](Oc4ccc(cc4)C[C@]4(OC)C[C@H](C(=O)N4)C(=O)[C@H]31)[C@@H]1[C@@H](C)C[C@@H](C)C[C@]12C | < 50 | < 50
17.8 | 13.2 |  |  |  | CO[C@@]12Cc3ccc(cc3)O[C@H]3[C@@H]4[C@H]5C(=O)[C@](C[C@@H](O)[C@@]5(C)C=C(C)[C@H]4[C@]4(C)C[C@H](C)C[C@H](C)[C@@H]34)(C1)C(=O)N2 | < 50 | < 50
38.5 | 10.3 |  |  |  | C=C[C@@]1(C)C=C(C)[C@@H]2[C@@H]3[C@H](Oc4ccc(cc4)C[C@@H]4C(=O)NC(=O)[C@@H]4C(=O)[C@H]31)[C@@H]1[C@@H](C)C[C@@H](C)C[C@]12C | < 50 | < 50
7.2 | 10.6 |  |  |  | CO[C@@]1(C)N(/C=C\c2ccccc2)C(=O)c2cc3c4ccccc4n(C)c3c(=O)n21 | < 50 | < 50
3 | 1.5 |  |  |  | COc1cc(O)c2c(c1)C(=O)c1cc(C)cc(O)c1C2=O [PHYSCION] | < 50 | < 50
15.1 | 12.7 |  |  |  | CO[C@@]1(C)N(/C=C/c2ccccc2)C(=O)c2cc3c([nH]c4ccccc43)c(=O)n21 | < 50 | < 50
11 | 21.2 |  |  |  | Cn1c2ccccc2c2cc3n(c(=O)c21)[C@@](C)(O)N(CCc1ccccc1)C3=O | < 50 | < 50
8.1 | 38.4 |  |  |  | CO[C@@]1(C)N(/C=C/c2ccccc2)C(=O)C2=C[C@@]3(C(=O)N(C)c4ccccc43)C(=O)N21 | < 50 | < 50
0.9 | 28.6 |  |  |  | O=c1ncc2ncn([C@@H]3O[C@@H](CO)[C@H](O)[C@@H]3O)c2[nH]1 | < 50 | < 50
2.7 | 5.7 |  |  |  | Cc1cc(O)c2c(c1)C(=O)c1cccc(O)c1C2=O [CHRYSOPHANOL] | < 50 | < 50
 |  | 1.06 | 1.28 |  | CC1=C[C@]2(C)C(=O)C[C@]34C[C@](O)(Cc5ccc(cc5)O[C@H]5[C@@H]([C@@H]1[C@]1(C)C[C@H](C)C[C@H](C)[C@@H]51)[C@H]2C3=O)NC4=O |  | 
20.2 | 21.6 |  |  |  | CO[C@@]1(C)N(/C=C/c2ccccc2)C(=O)c2cc3c4ccccc4n(C)c3c(=O)n21 | < 50 | < 50

Compound | IC50 (NCI-H157 [3]) [µM] | IC50 (A549 [4]) [µM] | IC50 (U-87 MG) [µM] | IC50 (U-251) [µM] | IC50 (HL-60) [µM] | viability at 50 µM (NCI-H157 [1]) [%] | viability at 50 µM (A549 [2]) [%]
CC(C)[C@@H](C)/C=C/[C@@H](C)[C@H]1CC[C@H]2C3=CC=C4C[C@@H](O)CC[C@]4(C)[C@H]3CC[C@]12C [ERGOSTEROL] | 23.3 | 19.2 |  |  |  | < 50 | < 50
